Data published in patent US20230293458A1, “MULTIBIOTIC AGENTS AND METHODS OF USING THE SAME” (Flagship Pioneering Innovations V, Inc., priority 2017, published 2023).

How the values were obtained:
[1] = Stability of multibiotic agents in Simulated Gastric Fluid (SGF); type: in vitro ADME; conditions: simulated gastric fluid pH 1.6 with pepsin, 37° C., 1 μM
Procedure, shortened: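 Compounds were incubated at 1 μM final at 37 °C in simulated gastric fluid containing NaCl, pH 1.6, with FaSSIF powder and 0.1 mg/mL pepsin. Aliquots were taken at T0 and at regular intervals and quenched with acetonitrile. Degradation rates were determined by LC/MS.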

[2] = Stability of multibiotic agents in Simulated Intestinal Fluid (SIF); type: in vitro ADME; conditions: simulated intestinal fluid pH 6.7 with pancreatin, 37° C., 1 μM
Procedure, shortened: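 Compounds at 1 μM final (from 1 mM DMSO stock) incubated at 37 °C with agitation in fresh SIF (FaSSIF plus pancreatin in pH 6.7 phosphate buffer). Aliquots taken at T0 and regular intervals, quenched with 1 volume acetonitrile. Degradation rate determined by LC/MS.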

Row | Structure (SMILES) | Assay 2 (SGF) (% Remaining @ 4 hours) [1] | Assay 3 (SIF) (% @ Remaining 4 hours) [2]
1 | O=C(/C=C/c1c[nH]c2ccccc12)O[C@H]1CO[C@H]2[C@@H]1OC[C@H]2OC(=O)/C=C/c1c[nH]c2ccccc12 [Example 123, [(3R,3aR,6S,6aR)-6-[(E)-3-(1H-indol-3-yl)prop-2-enoyl]oxy-2,3,3a,5,6,6a-hexahydrofuro[3,2-b]furan-3-yl] (E)-3-(1H-indol-3-yl)prop-2-enoate] | C (>75% of the tested compound remaining) | C (>75% of the tested compound remaining)
2 | CC(C)(COC(=O)/C=C/c1c[nH]c2ccccc12)[C@@H](OC(=O)/C=C/c1c[nH]c2ccccc12)C(=O)NCCC(N)=O [Example 124, [(3R)-4-[(3-amino-3-oxo-propyl)amino]-3-[(E)-3-(1H-indol-3-yl)prop-2-enoyl]oxy-2,2-dimethyl-4-oxo-butyl] (E)-3-(1H-indol-3-yl)prop-2-enoate] | C (>75% of the tested compound remaining) | C (>75% of the tested compound remaining)
3 | CC(C)(COC(=O)/C=C/c1c[nH]c2ccccc12)[C@@H](OC(=O)/C=C/c1c[nH]c2ccccc12)C(=O)NCCCOC(=O)/C=C/c1c[nH]c2ccccc12 [Example 125, 3-[[(2R)-2,4-bis[[(E)-3-(1H-indol-3-yl)prop-2-enoyl]oxy]-3,3-dimethyl-butanoyl]amino]propyl (E)-3-(1H-indol-3-yl)prop-2-enoate] | C (>75% of the tested compound remaining) | C (>75% of the tested compound remaining)
4 | CCCC(=O)NCCCNC(=O)CCC [Example 126, N-[3-(butanoylamino)propyl]butanamide] | C (>75% of the tested compound remaining) | C (>75% of the tested compound remaining)
5 | CCCC(=O)NCCCCN(CCCNC(=O)CCC)C(=O)CCC [Example 127, N-[4-[butanoyl-[3-(butanoylamino)propyl]amino]butyl]butanamide] | C (>75% of the tested compound remaining) | C (>75% of the tested compound remaining)
6 | CCCC(=O)NCCCN(CCCCN(CCCNC(=O)CCC)C(=O)CCC)C(=O)CCC [Example 128, N-[3-[butanoyl-[4-[butanoyl-[3-(butanoylamino)propyl]amino]butyl]amino]propyl]butanamide] | C (>75% of the tested compound remaining) | C (>75% of the tested compound remaining)
7 | CCCC(=O)NCCCN(CCCNC(=O)CCC)C(=O)CCC [Example 129, N-[3-[butanoyl-[3-(butanoylamino)propyl]amino]propyl]butanamide] | C (>75% of the tested compound remaining) | C (>75% of the tested compound remaining)
8 | CCCC(=O)N1CCN(C(=O)CCC)CC1 [Example 130, 1-(4-butanoylpiperazin-1-yl)butan-1-one] | C (>75% of the tested compound remaining) | C (>75% of the tested compound remaining)
9 | CCCC(=O)N(C)CCCN(C)C(=O)CCC [Example 131, N-[3-[butanoyl(methyl)amino]propyl]-N-methyl-butanamide] | C (>75% of the tested compound remaining) | C (>75% of the tested compound remaining)
10 | CCCC(=O)N[C@H]1CC[C@H](NC(=O)CCC)CC1 [Example 132, trans-N-[4-(butanoylamino)cyclohexyl]butanamide] | C (>75% of the tested compound remaining) | C (>75% of the tested compound remaining)
11 | CCCC(=O)NCCC[C@H](NC(=O)CCC)C(=O)O [Example 133, (2S)-2,5-bis(butanoylamino)pentanoic acid] | C (>75% of the tested compound remaining) | C (>75% of the tested compound remaining)
12 | CCCC(=O)/N=C(/NCCCCNC(=O)CCC)NC(=O)CCC [Example 134, N-[4-[[(Z)—N,N′-di(butanoyl)carbamimidoyl]amino]butyl]butanamide] | C (>75% of the tested compound remaining) | C (>75% of the tested compound remaining)
13 | C[C@@H](O)CC(=O)NCCCNC(=O)C[C@@H](C)O [Example 135, (3R)-3-hydroxy-N-[3-[[(3R)-3-hydroxybutanoyl]amino]propyl]butanamide] | C (>75% of the tested compound remaining) | C (>75% of the tested compound remaining)
14 | C[C@@H](O)CC(=O)NCCCN(CCCCN(CCCNC(=O)C[C@@H](C)O)C(=O)C[C@@H](C)O)C(=O)C[C@@H](C)O [Example 136, (3R)-3-hydroxy-N-[3-[[(3R)-3-hydroxybutanoyl]-[4-[[(3R)-3-hydroxybutanoyl]-[3-[[(3R)-3-hydroxybutanoyl]amino]propyl]amino]butyl]amino]propyl]butanamide] | C (>75% of the tested compound remaining) | C (>75% of the tested compound remaining)
15 | C[C@@H](O)CC(=O)NCCCNCCCCN(CCCNC(=O)C[C@@H](C)O)C(=O)C[C@@H](C)O [Example 137, (3R)-3-hydroxy-N-[3-[4-[[(3R)-3-hydroxybutanoyl]-[3-[[(3R)-3-hydroxybutanoyl]amino]propyl]amino]butylamino]propyl]butanamide] | C (>75% of the tested compound remaining) | C (>75% of the tested compound remaining)
16 | CC(=O)OC1OC[C@H](OC(C)=O)[C@H](OC(C)=O)[C@H]1OC(C)=O (stereo partly drawn) [Example 138, [(3S,4S,5R)-4,5,6-triacetoxytetrahydropyran-3-yl] acetate] | C (>75% of the tested compound remaining) | C (>75% of the tested compound remaining)
17 | CCCC(=O)OC1OC[C@H](OC(=O)CCC)[C@H](OC(=O)CCC)[C@H]1OC(=O)CCC (stereo partly drawn) [Example 139, [(3S,4S,5R)-4,5,6-tri(butanoyloxy)tetrahydropyran-3-yl] butanoate] | C (>75% of the tested compound remaining) | C (>75% of the tested compound remaining)
18 | CCCC(=O)O[C@H]1[C@@H](OC(=O)CCC)COC(O)[C@@H]1OC(=O)CCC (stereo partly drawn) [Example 140, [(3S,4S,5R)-4,5-di(butanoyloxy)-6-hydroxy-tetrahydropyran-3-yl] butanoate] | C (>75% of the tested compound remaining) | C (>75% of the tested compound remaining)
19 | CCCC(=O)O[C@H]1[C@@H](OC(=O)CCC)COC(Oc2ccccc2C(=O)O)[C@@H]1OC(=O)CCC (stereo partly drawn) [Example 141, 2-[(3R,4S,5S)-3,4,5-tri(butanoyloxy)tetrahydropyran-2-yl]oxybenzoic acid] | C (>75% of the tested compound remaining) | A (<25% of the tested compound remaining)
20 | Cc1ncc(CO)c(COC(=O)/C=C/c2c[nH]c3ccccc23)c1OC(=O)/C=C/c1c[nH]c2ccccc12 [Example 142, [5-(hydroxymethyl)-3-[(E)-3-(1H-indol-3-yl)prop-2-enoyl]oxy-2-methyl-4-pyridyl]methyl (E)-3-(1H-indol-3-yl)prop-2-enoate] | C (>75% of the tested compound remaining) | C (>75% of the tested compound remaining)
21 | C[C@@H](O)CC(=O)NCCCNCCCNC(=O)C[C@@H](C)O [Example 143, (3R)-3-hydroxy-N-[3-[3-[[(3R)-3-hydroxybutanoyl]amino]propylamino]propyl] butanamide] | C (>75% of the tested compound remaining) | C (>75% of the tested compound remaining)
22 | CCCC(=O)O[C@@H]1[C@H](OC(=O)CCC)COC(O)[C@@H]1OC(=O)CCC (stereo partly drawn) [Example 144, [(3R,4R,5R)-4,5-di(butanoyloxy)-6-hydroxy-tetrahydropyran-3-yl] butanoate] | C (>75% of the tested compound remaining) | A (<25% of the tested compound remaining)
23 | O=C(Cc1c[nH]c2ccccc12)O[C@H]1OC[C@@H](OC(=O)Cc2c[nH]c3ccccc23)[C@@H](OC(=O)Cc2c[nH]c3ccccc23)[C@H]1OC(=O)Cc1c[nH]c2ccccc12 [Example 145, [(3R,4R,5R,6R)-4,5,6-tris[[2-(1H-indol-3-yl)acetyl]oxy]tetrahydropyran-3-yl] 2-(1H-indol-3-yl)acetate] | C (>75% of the tested compound remaining) | A (<25% of the tested compound remaining)
24 | O=C(Cc1c[nH]c2ccccc12)O[C@@H]1OC[C@@H](OC(=O)Cc2c[nH]c3ccccc23)[C@@H](OC(=O)Cc2c[nH]c3ccccc23)[C@H]1OC(=O)Cc1c[nH]c2ccccc12 [Example 146, [(3R,4R,5R,6S)-4,5,6-tris[[2-(1H-indol-3-yl)acetyl]oxy]tetrahydropyran-3-yl] 2-(1H-indol-3-yl)acetate] | C (>75% of the tested compound remaining) | A (<25% of the tested compound remaining)
25 | O=C(Cc1c[nH]c2ccccc12)O[C@H]1[C@@H](OC(=O)Cc2c[nH]c3ccccc23)COC(O)[C@@H]1OC(=O)Cc1c[nH]c2ccccc12 (stereo partly drawn) [Example 147, [(3S,4S,5R)-6-hydroxy-4,5-bis[[2-(1H-indol-3-yl)acetyl]oxy]tetrahydropyran-3-yl] 2-(1H-indol-3-yl)acetate] | C (>75% of the tested compound remaining) | B (25-75% of the tested compound remaining)
